Assay results as given in publication PMC7116876, “Mechanistic Insights into Regulation of the ALC1 Remodeler by the Nucleosome Acidic Patch” (Cell reports, 2020).

How the values were obtained:
[1] = test system: APM/APM nucleosomes (H2A E61A, E64A, D90A, E92A); assay: Fluorescence anisotropy binding assay, APM/APM nucleosomes; set-up: species or system Xenopus laevis histones; settings: 10 nM TAMRA-labeled peptide, 15 mM HEPES pH 7.5, 30°C, one representative curve of two independent experiments
Description: (§1) The DNA constructs used in the nucleosome assembly for single-molecule and ensemble remodeling studies comprised the Widom 601 nucleosome positioning sequence ([Lowary and Widom, 1998]) as well as either 3 bp or 12 bp of linker DNA on one side and 78 bp on the other side (for the single-molecule remodeling construct) or 63 bp of linker DNA on one side and no linker DNA on the other side (for the ensemble remodeling construct). All constructs were 5’-labeled with Cy5 on the short linker end. The constructs for single-molecule experiments additionally featured a biotin on the long linker end. […] The DNA constructs for the assembly of nucleosomes used in fluorescence anisotropy experiments and ATPase assays comprised the Widom 601 positioning sequence without additional linker DNA (for the fluorescence anisotropy construct) or 63 bp of linker DNA on one side and no linker DNA on the other side (for the ATPase assay construct). […]
For binding studies, we used nucleosomes without linker DNA (WT/WT or APM/APM) as well as the following synthetic peptides (as detailed above): LANA peptide-TAMRA, ALC1^RLS peptide-TAMRA, and ALC1^RLS peptide. Fluorescence anisotropy measurements were carried out at 30°C using a CLARIOstar microplate reader (BMG Labtech). Binding curves were recorded in black low-volume 384-well assay plates (Corning). […]

[2] = molecular target: T1, WT/WT nucleosomes (acidic patch) (Xenopus laevis, UniProt P02281+P06897+P62799); assay: Competition fluorescence anisotropy with LANA-TAMRA pre-bound to WT/WT nucleosomes; format: binding, Xenopus laevis histones; settings: LANA-TAMRA 10 nM, WT/WT nucleosomes 100 nM, varying unlabeled ALC1^RLS peptide, 30°C; n = 3 independent experiments
T1 construct: made in house; host or cells: E. coli BL21 (DE3) pLysS
Description: For binding studies, we used nucleosomes without linker DNA (WT/WT or APM/APM) as well as the following synthetic peptides (as detailed above): LANA peptide-TAMRA, ALC1^RLS peptide-TAMRA, and ALC1^RLS peptide. Fluorescence anisotropy measurements were carried out at 30°C using a CLARIOstar microplate reader (BMG Labtech). Binding curves were recorded in black low-volume 384-well assay plates (Corning). Individual wells contained 10 nM peptide and the indicated concentration of nucleosomes in 15 mM HEPES pH 7.5,1 mM EDTA, 5% glycerol, and 1 mM DTT. Dissociation constants were determined by fitting the fluorescence anisotropy data to the solution of a quadratic equation derived from the binding isotherm, which took into account depletion of peptide: r=αA+KD+B−A+KD+B^2−4AB , where r is the fluorescence anisotropy, A represents the total concentration of peptide, a is a scaling factor, KD is the dissociation constant, and B is the total concentration of titrated ligand. […]
For fluorescence anisotropy binding experiments, the reported values represent the mean ± SEM from 3 independent experiments. […] For ensemble nucleosome remodeling time courses, each experimental condition was recorded in 3 independent experiments, and representative remodeling time courses are shown. […]

[3] = test system: ALC1-catalyzed remodeling of WT/WT nucleosomes; assay: Ensemble FRET nucleosome remodeling, WT/WT nucleosomes; format: biochemical, Homo sapiens ALC1; Xenopus laevis histones; settings: WT/WT nucleosomes 10 nM preincubated with 80 μM LANA peptide 5 min room temperature; 80 nM ALC1^fl R860W (Fig 1C) or 80 nM ALC1^fl activated with PARP1/NAD+ (Fig S1C)
Description: cDNAs for ALC1 and PARP1 were of Homo sapiens origin. Histone proteins (recombinantly expressed in E. coli) were of Xenopus laevis origin. Cell lines as well as growth conditions are described in the Method Details.
Oligonucleotides used in this study were ordered from IDT (see Table S3). The ALC1^fl (16-879) construct contains the human ALC1 sequence and a 6xHis-tag, as previously published ([Lehmann et al., 2017]). All point mutations were generated by PCR-based site-directed mutagenesis. The plasmid for human PARP1 (1-1014) with an N-terminal 6xHis-tag was a kind gift from John M. Pascal ([Langelier et al., 2017]).
as §1, with “construct).” for “construct). All constructs were 5’-labeled with Cy5 on the short linker end. The constructs for single-molecule experiments additionally featured a biotin on the long linker end.”

CC[C@H](C)[C@H](NC(=O)[C@H](CC(C)C)NC(=O)[C@@H](NC(=O)[C@H](CO)NC(=O)CNC(=O)[C@H](CCCCN)NC(=O)[C@H](CC(N)=O)NC(=O)[C@H](CCCNC(=N)N)NC(=O)[C@H](CC(C)C)NC(=O)[C@H](CO)NC(=O)[C@H](CCCNC(=N)N)NC(=O)CNC(=O)[C@H](CCC(=O)O)NC(=O)[C@H](CCC(N)=O)NC(=O)[C@H](CO)NC(=O)[C@H](C)NC(=O)[C@H](CCCCN)NC(=O)[C@@H](N)CCC(=O)O)C(C)C)C(=O)N1CCC[C@H]1C(=O)NCC(=O)N[C@@H](CC(C)C)C(=O)N[C@@H](CCCCNC(=O)c1ccc2c(c1)C(=O)OC21c2ccc(N(C)C)cc2Oc2cc(N(C)C)ccc21)C(=O)O [ALC1^RLS-TAMRA]
affinity for nucleosomes with AP mutations on both H2A/H2B dimers [1]: substantially reduced affinity

EKASQEGRSLRNKGSVLIPGL [ALC1^RLS peptide, N-terminal regulatory linker segment (residues 604–624) of ALC1, unlabeled]
effect on fluorescence anisotropy of pre-formed LANA-TAMRA peptide-nucleosome complex [2]: caused a decrease in its fluorescence anisotropy in a dose-dependent manner

MAPPGMRLRSGRSTGAPLTRGS [LANA peptide, peptide derived from the latency-associated nuclear antigen (LANA) of Kaposi's sarcoma-associated herpesvirus, reference compound]
effect on ALC1-catalyzed remodeling [3]: completely abrogated ALC1-catalyzed remodeling
